Test results taken from patent EP2108954A1, “A test system for detecting intracellular cyclic nucleotide level and methods and uses thereof” (Max-Planck-Gesellschaft zur Förderung der Wissenschaften …, priority 2008, dated 2009).

Target: T1, Or22a and Or83b (Drosophila melanogaster, UniProt P81909+Q9VNB5)
T1 construct: expressed in transfected cells; host or cells: HEK293
T1 sequence (P81909 1-397): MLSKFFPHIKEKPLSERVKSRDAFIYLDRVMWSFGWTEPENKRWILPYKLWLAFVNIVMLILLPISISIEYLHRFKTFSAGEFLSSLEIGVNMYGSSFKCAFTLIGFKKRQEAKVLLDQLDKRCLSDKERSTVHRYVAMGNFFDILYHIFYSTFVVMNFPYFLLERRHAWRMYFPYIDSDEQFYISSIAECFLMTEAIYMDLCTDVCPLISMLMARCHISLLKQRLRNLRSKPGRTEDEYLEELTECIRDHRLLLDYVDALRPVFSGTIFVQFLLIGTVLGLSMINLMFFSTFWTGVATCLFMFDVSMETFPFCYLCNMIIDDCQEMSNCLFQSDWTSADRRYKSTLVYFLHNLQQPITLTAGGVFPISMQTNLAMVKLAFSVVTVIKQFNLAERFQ
T1 sequence (Q9VNB5 1-486): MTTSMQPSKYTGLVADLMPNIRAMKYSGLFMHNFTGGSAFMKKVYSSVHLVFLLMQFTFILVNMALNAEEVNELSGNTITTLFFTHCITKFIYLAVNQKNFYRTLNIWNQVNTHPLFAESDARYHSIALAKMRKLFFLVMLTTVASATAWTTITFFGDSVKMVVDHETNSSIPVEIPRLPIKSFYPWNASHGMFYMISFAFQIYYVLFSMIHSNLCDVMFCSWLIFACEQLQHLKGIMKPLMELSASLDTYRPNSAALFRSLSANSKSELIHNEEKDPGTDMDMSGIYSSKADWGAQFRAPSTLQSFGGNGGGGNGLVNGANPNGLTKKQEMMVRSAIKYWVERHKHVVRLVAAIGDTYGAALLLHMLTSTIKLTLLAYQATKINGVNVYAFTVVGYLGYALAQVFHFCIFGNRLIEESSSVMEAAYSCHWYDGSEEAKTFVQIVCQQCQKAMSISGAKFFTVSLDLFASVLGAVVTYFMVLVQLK
Assay: Calcium imaging (fura-2) in HEK293 cells coexpressing Or22a and Or83b
Format: cell-based
Details: dependent on Etb concentration and on extracellular Ca^2+
Experimental: Free intracellular Ca^2+ concentration ([Ca^2+]i) was determined by fura-2 fluorescence as described (Messutat et al., Cell Calcium 30, 199-211. (2001)). In brief, cells were loaded with fura-2 by incubation in bath solution containing 2 µM fura-2/acetomethylester for 20 min. Free intracellular Ca^2+ concentration ([Ca^2+]i) was determined with the fluorescence ratio method. Excitation of fura-2 at 340 and 380 nm was performed with a monochromator (Polychrome II, T.I.L.L. Photonics, Gräfelfing, Germany) coupled via an epifluorescence condenser into an Axioskop FS microscope (Carl Zeiss, Jena, Germany) with a water immersion objective (LUMPFL 40xW/IR/0.8; Olympus, Hamburg, Germany). […] [Ca^2+]i was calculated according to the equation [Ca^(2 +)]i = Keff (R-Rmin)/(Rmax-R). […] Keff, Rmin, and Rmax were determined using HEK293 cells permeabilized with 2 µM ionomycin and three solutions with different concentrations of free Ca^2+ (Ca^2+ free; 5 mM Ca^2+; 500 nM Ca^2+; the composition of the 500 nM solution was calculated with WEBMAXC v.2.20) (Patton et al., Cell Calcium 35, 427-31 (2004)). […]
Fluorescence images were acquired using a cooled CCD camera controlled by TILLVision 4.0 software (T.I.L.L. Photonics). […] Image pairs were obtained by excitation for 100 ms at 340 nm and 380 nm; background fluorescence was subtracted.

CCCC(=O)OCC [Etb, ethyl butyrate]
intracellular Ca^2+ concentration ([Ca^2+]i): increased intracellular Ca^2+ concentration
